ChEMBL document CHEMBL1649287, “Postantibiotic effect of ceftaroline against gram-positive organisms” (2009)
In brackets after ≈: the same amount, converted by molar mass.

Tests used:
Assay type in all cases: functional
[1] = tested on: Enterococcus faecalis; experiment: Antimicrobial activity against vancomycin-sensitive Enterococcus faecalis 20 assessed as time required to induce post antibiotic sub-MIC effect at 0.2 times MIC after 1 hr by plate counting method; details: Enterococcus faecalis, 20, 1 h
[2] = tested on: Staphylococcus aureus; experiment: Antimicrobial activity against methicillin-resistant, vancomycin-intermediate Staphylococcus aureus 510 assessed as time required to induce sub-MIC effect at 0.3 times MIC after 1 hr by plate counting method; details: Staphylococcus aureus, 510, 1 h
[3] = tested on: Enterococcus faecalis; experiment: Antimicrobial activity against vancomycin-sensitive Enterococcus faecalis 10 assessed as time required to induce post antibiotic sub-MIC effect at 0.3 times MIC after 1 hr by plate counting method; details: Enterococcus faecalis, 10, 1 h
[4] = tested on: Enterococcus faecalis; experiment: Antimicrobial activity against vancomycin-sensitive Enterococcus faecalis 10 by microdilution method
[5] = tested on: Enterococcus faecalis; experiment: Antimicrobial activity against vancomycin-resistant Enterococcus faecalis 266 assessed as time required to induce sub-MIC effect at 0.4 times MIC after 1 hr by plate counting method; details: Enterococcus faecalis, 266, 1 h
[6] = tested on: Enterococcus faecalis; experiment: Antimicrobial activity against vancomycin-sensitive Enterococcus faecalis ATCC 29212 assessed as time required to induce sub-MIC effect at 0.2 times MIC after 1 hr by plate counting method; details: ATCC 29212, 1 h
[7] = tested on: Streptococcus pneumoniae; experiment: Antimicrobial activity against Penicillin-susceptible Streptococcus pneumoniae ATCC 49617 assessed as time required to induce post antibiotic sub-MIC effect at 0.3 times MIC after 1 hr by plate counting method; details: ATCC 49617, 1 h
[8] = tested on: Streptococcus pneumoniae; experiment: Antimicrobial activity against Penicillin-intermediate Streptococcus pneumoniae s1234 assessed as time required to induce post antibiotic sub-MIC effect at 0.2 times MIC after 1 hr by plate counting method; details: s1234, 1 h
[9] = tested on: Enterococcus faecalis; experiment: Antimicrobial activity against vancomycin-sensitive Enterococcus faecalis 10 assessed as time required to induce sub-MIC effect at 0.2 times MIC after 1 hr by plate counting method; details: Enterococcus faecalis, 10, 1 h
[10] = tested on: Enterococcus faecalis; experiment: Antimicrobial activity against vancomycin-sensitive Enterococcus faecalis 20 assessed as time required to induce sub-MIC effect at 0.2 times MIC after 1 hr by plate counting method; details: Enterococcus faecalis, 20, 1 h
[11] = tested on: Enterococcus faecalis; experiment: Antimicrobial activity against vancomycin-resistant Enterococcus faecalis 609 assessed as post antibiotic effect at 10 times MIC after 1 hr by plate counting method; details: Enterococcus faecalis, 609, 1 h
[12] = tested on: Staphylococcus aureus; experiment: Antimicrobial activity against methicillin-resistant, vancomycin-susceptible Staphylococcus aureus vs1 assessed as time required to induce post antibiotic sub-MIC effect at 0.2 times MIC after 1 hr by plate counting method; details: vs1, 1 h
[13] = tested on: Enterococcus faecalis; experiment: Antimicrobial activity against vancomycin-sensitive Enterococcus faecalis ATCC 29212 assessed as time required to induce post antibiotic sub-MIC effect at 0.4 times MIC after 1 hr by plate counting method; details: ATCC 29212, 1 h
[14] = tested on: Staphylococcus aureus; experiment: Antimicrobial activity against methicillin-susceptible, vancomycin-susceptible Staphylococcus aureus ATCC 29213 assessed as time required to induce post antibiotic sub-MIC effect at 0.4 times MIC after 1 hr by plate counting method; details: ATCC 29213, 1 h
[15] = tested on: Streptococcus pneumoniae; experiment: Antimicrobial activity against Penicillin-, erythromycin-resistant Streptococcus pneumoniae 37 assessed as time required to induce sub-MIC effect at 0.4 times MIC after 1 hr by plate counting method; details: Streptococcus pneumoniae, 37, 1 h
[16] = tested on: Enterococcus faecalis; experiment: Antimicrobial activity against vancomycin-sensitive Enterococcus faecalis ATCC 29212 assessed as post antibiotic effect at 10 times MIC after 1 hr by plate counting method; details: ATCC 29212, 1 h
[17] = tested on: Streptococcus pneumoniae; experiment: Antimicrobial activity against Penicillin-susceptible Streptococcus pneumoniae s502 assessed as time required to induce sub-MIC effect at 0.3 times MIC after 1 hr by plate counting method; details: s502, 1 h
[18] = tested on: Staphylococcus aureus; experiment: Antimicrobial activity against methicillin-susceptible, vancomycin-susceptible Staphylococcus aureus sox1 assessed as time required to induce post antibiotic sub-MIC effect at 0.4 times MIC after 1 hr by plate counting method; details: sox1, 1 h
[19] = tested on: Enterococcus faecalis; experiment: Antimicrobial activity against vancomycin-resistant Enterococcus faecalis 266 assessed as time required to induce post antibiotic sub-MIC effect at 0.2 times MIC after 1 hr by plate counting method; details: Enterococcus faecalis, 266, 1 h
[20] = tested on: Streptococcus pneumoniae; experiment: Antimicrobial activity against Penicillin-susceptible Streptococcus pneumoniae s502 assessed as time required to induce sub-MIC effect at 0.4 times MIC after 1 hr by plate counting method; details: s502, 1 h
[21] = tested on: Staphylococcus aureus; experiment: Antimicrobial activity against Staphylococcus aureus ATCC 29213 infected in neutropenic ICR mouse assessed as post antibiotic effect at 1.56 to 100 mg/kg, sc administered 14 hrs post infection; details: dose mg/kg 1.56-100; route subcutaneous
[22] = tested on: Enterococcus faecalis; experiment: Antimicrobial activity against vancomycin-sensitive Enterococcus faecalis ATCC 29212 assessed as time required to induce sub-MIC effect at 0.4 times MIC after 1 hr by plate counting method; details: ATCC 29212, 1 h
[23] = tested on: Enterococcus faecalis; experiment: Antimicrobial activity against vancomycin-resistant Enterococcus faecalis 609 assessed as time required to induce post antibiotic sub-MIC effect at 0.4 times MIC after 1 hr by plate counting method; details: Enterococcus faecalis, 609, 1 h
[24] = tested on: Staphylococcus aureus; experiment: Antimicrobial activity against methicillin-resistant, vancomycin-intermediate Staphylococcus aureus 510 assessed as time required to induce post antibiotic sub-MIC effect at 0.4 times MIC after 1 hr by plate counting method; details: Staphylococcus aureus, 510, 1 h
[25] = tested on: Staphylococcus aureus; experiment: Antimicrobial activity against methicillin-susceptible, vancomycin-susceptible Staphylococcus aureus sox1 by microdilution method
[26] = tested on: Enterococcus faecalis; experiment: Antimicrobial activity against vancomycin-resistant Enterococcus faecalis 266 assessed as time required to induce post antibiotic sub-MIC effect at 0.3 times MIC after 1 hr by plate counting method; details: Enterococcus faecalis, 266, 1 h
[27] = tested on: Staphylococcus aureus; experiment: Antimicrobial activity against methicillin-susceptible, vancomycin-susceptible Staphylococcus aureus sox1 assessed as time required to induce sub-MIC effect at 0.2 times MIC after 1 hr by plate counting method; details: sox1, 1 h
[28] = tested on: Staphylococcus aureus; experiment: Antimicrobial activity against methicillin-susceptible, vancomycin-susceptible Staphylococcus aureus sox1 assessed as time required to induce sub-MIC effect at 0.3 times MIC after 1 hr by plate counting method; details: sox1, 1 h
[29] = tested on: Staphylococcus aureus; experiment: Antimicrobial activity against methicillin-susceptible, vancomycin-susceptible Staphylococcus aureus ATCC 29213 assessed as post antibiotic effect at 10 times MIC after 1 hr by plate counting method; details: ATCC 29213, 1 h
[30] = tested on: Enterococcus faecalis; experiment: Antimicrobial activity against vancomycin-resistant Enterococcus faecalis 609 assessed as time required to induce post antibiotic sub-MIC effect at 0.3 times MIC after 1 hr by plate counting method; details: Enterococcus faecalis, 609, 1 h
[31] = tested on: Streptococcus pneumoniae; experiment: Antimicrobial activity against Penicillin-susceptible Streptococcus pneumoniae s502 by microdilution method
[32] = tested on: Enterococcus faecalis; experiment: Antimicrobial activity against vancomycin-resistant Enterococcus faecalis 266 assessed as time required to induce post antibiotic sub-MIC effect at 0.4 times MIC after 1 hr by plate counting method; details: Enterococcus faecalis, 266, 1 h
[33] = tested on: Streptococcus pneumoniae; experiment: Antimicrobial activity against Penicillin-susceptible Streptococcus pneumoniae s502 assessed as time required to induce post antibiotic sub-MIC effect at 0.2 times MIC after 1 hr by plate counting method; details: s502, 1 h
[34] = tested on: Enterococcus faecalis; experiment: Antimicrobial activity against vancomycin-resistant Enterococcus faecalis 266 assessed as post antibiotic effect at 10 times MIC after 1 hr by plate counting method; details: Enterococcus faecalis, 266, 1 h
[35] = tested on: Streptococcus pneumoniae; experiment: Antimicrobial activity against Penicillin-susceptible Streptococcus pneumoniae ATCC 49617 assessed as time required to induce sub-MIC effect at 0.3 times MIC after 1 hr by plate counting method; details: ATCC 49617, 1 h

With `CCO/N=C(\C(=O)N[C@@H]1C(=O)N2C(C(=O)[O-])=C(Sc3nc(-c4cc[n+](C)cc4)cs3)CS[C@H]12)c1nsc(NP(=O)(O)O)n1` [CEFTAROLINE FOSAMIL] the PAE [1] was 4.1 h, the time [2] was 0.7 h and the PAE [3] was 6.6 h. For the same compound, the MIC [4] was 0.5 µg/mL (≈ 0.73 µM), the time [5] was 9.5 h and the PAE [6] was 3.1 h. The PAE [7] was 5.9 h, the PAE [8] was 1.4 h and the PAE [9] was 0.8 h. For the same compound, the time [10] was 0.9 h, the PAE [11] was 0.2 h and the time [12] was 2.7 h. For the same compound, the PAE [13] was over 10.6 h, the PAE [14] was over 10.5 h and the time [15] was 0.5 h. For the same compound, the PAE [16] was 0.8 h, the PAE [17] was 0.3 h and the PAE [18] was 6.2 h. The time [19] was 8.3 h, the PAE [20] was 2.5 h and the PAE [21] was 0.8 h. The PAE [22] was 10 h, the time [23] was 7.9 h and the time [24] was over 10 h. It also gave an MIC [25] of 0.25 µg/mL (≈ 0.365 µM), a time [26] of over 10.3 h and a PAE [27] of 0.2 h. For the same compound, the PAE [28] was 0.9 h, the PAE [29] was 1 h and the time [30] was 3.3 h. For the same compound, the MIC [31] was 0.008 µg/mL (≈ 0.0117 µM), the time [32] was over 10.3 h and the PAE [33] was 2.7 h. It also gave a PAE [34] of 0.9 h and a PAE [35] of 0.7 h.
